Where two headings read alike, the source gives them in different places. Values belong to the compound of their own block, whether it stands above or below them.
Experiments:
MCR-1 = biological target: T1, MCR-1 (Homo sapiens, UniProt Q01726); test: Melanocortin receptor binding assay, competition with 125I-HP 467, HEK 293 cells expressing hMCR-1; settings: for IC50: read-out: MC-1 IC50
T1 construct: expressed in transfected cells; host or cells: HEK 293
How it was run: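 Intact-cell competition binding, 2.5 hr at 37 °C, in PBS/10% calf serum/1 mM CaCl2; hMCR-4 cells at 4×10^3 per tube, hMCR-1 cells at 2×10^4 per tube. Filtration on BSA/CaCl2-soaked GF/B, cold 50 mM Tris pH 7.4 washes, scintillation count.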

MCR-4 = biological target: T2, MCR-4 (Homo sapiens, UniProt P32245); test: Melanocortin receptor binding assay, competition with 125I-HP 467, HEK 293 cells expressing hMCR-4; settings: read-out: MC-4 IC50
T2 construct: expressed in transfected cells; host or cells: HEK 293
T2 sequence (P32245 whole entry): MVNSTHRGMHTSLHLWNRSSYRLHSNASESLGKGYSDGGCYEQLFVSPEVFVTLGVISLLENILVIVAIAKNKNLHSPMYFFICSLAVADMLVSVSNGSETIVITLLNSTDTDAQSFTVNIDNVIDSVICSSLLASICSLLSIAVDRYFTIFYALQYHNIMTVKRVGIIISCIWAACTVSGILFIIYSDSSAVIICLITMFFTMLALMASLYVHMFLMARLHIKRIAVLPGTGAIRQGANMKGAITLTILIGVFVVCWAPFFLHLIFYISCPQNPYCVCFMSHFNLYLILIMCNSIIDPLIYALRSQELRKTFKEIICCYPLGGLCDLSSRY
Experimental: All cell culture media and reagents were obtained from GibcoBRL (Gaithersburg Md.), except for COSMIC CALF SERUM (HyClone; Logan Utah).
Cells were suspended in PBS, 10% COSMIC CALF SERUM and 1 mM CaCl2. Cell suspensions were prepared at a density of 2×10^4 cells/ml for HEK 293 cells expressing hMCR-3, hMCR-4 or hMCR-5, and 1×10^5 cells/ml for HEK 293 cells expressing hMCR-1. Suspensions were placed in a water bath and allowed to warm to 37° C. for 1 hr.
Binding assays were performed in a total volume of 250 μl for HEK 293 cells. […] To each tube was added 4×10^3 HEK 293 cells expressing hMCR-3, hMCR-4 or hMCR-5, or 2×10^4 cells expressing hMCR-1. Assays were incubated for 2.5 hr at 37° C.
GF/B filter plates were prepared by soaking for at least one hour in 5 mg/ml BSA and 10 mM CaCl2. Assays were filtered using a Brandel 96-well cell harvester (Brandel Inc.; Gaithersburg, Md.). The filters were washed four times with cold 50 mM Tris, pH 7.4, the filter plates were dehydrated for 2 hr and 35 μl of MICROSCINT was added to each well. Filter plates were counted using a Packard Topcount (Packard Instrument Co.) and data analyzed using GraphPad PRISM v2.0 (GraphPad Software Inc.; San Diego Calif.) and Microsoft EXCEL v5.0a (Microsoft Corp.; Redmond Wash.).
To assay isoquinoline compounds, binding assays were performed in duplicate in a 96 well format. […] A 0.2 ml aliquot of suspended cells was added to each well to give the cell numbers indicate above, and the cells were incubated at 37° C. for 2.5 hr. Cells were harvested on GF/B filter plates as described above and counted.

[1] = competition with 125I-HP 467, HEK 293 cells expressing MCR-1
[2] = competition with 125I-HP 467, HEK 293 cells expressing MCR-4
[3] = inhibition of binding of 125I-HP 467, HEK 293 cells expressing MCR-1, TRG 2414 library
[4] = inhibition of binding of 125I-HP 467, HEK 293 cells expressing MCR-4, TRG 2414 library
[5] = TRG 2406 and TRG 2407 libraries, inhibition of binding of 125I-HP 467
[6] = inhibition of binding of 125I-HP 467, HEK 293 cells expressing MCR-1
[7] = inhibition of binding of 125I-HP 467, HEK 293 cells expressing MCR-4
[8] = TRG 2408 and TRG 2409 libraries, inhibition of 125I-HP 467 binding

T1 sequence (Q01726 whole entry): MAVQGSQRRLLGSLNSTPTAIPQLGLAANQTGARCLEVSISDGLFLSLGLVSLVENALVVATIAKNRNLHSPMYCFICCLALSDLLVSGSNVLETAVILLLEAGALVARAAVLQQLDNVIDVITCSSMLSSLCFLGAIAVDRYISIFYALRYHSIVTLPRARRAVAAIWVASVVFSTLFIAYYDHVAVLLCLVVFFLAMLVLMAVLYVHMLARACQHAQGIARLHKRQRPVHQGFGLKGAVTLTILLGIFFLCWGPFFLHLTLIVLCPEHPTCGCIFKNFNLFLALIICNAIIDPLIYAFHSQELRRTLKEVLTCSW

SMILES: COc1ccccc1CCNCC1c2ccccc2CN(CCCCC(CN)NCC(C)c2ccc(CC(C)C)cc2)C1c1ccc(Cl)cc1Cl (centres unmarked) [TRG 2414-12]
IC50 (MCR-1; [3]): 11.7 µM | IC50 (MCR-4; [4]): 34.5 µM

SMILES: NCC(N)CCCCN1Cc2ccccc2C(CNCCc2cccc(Cl)c2)C1c1cccc(Oc2ccccc2)c1 (centres unmarked) [TRG 2414-93]
IC50 (MCR-1; [3]): 6.3 µM | IC50 (MCR-4; [4]): 3.8 µM

SMILES: CCCOc1ccc(C2C(CNCc3ccccc3O)c3ccccc3CN2CCCCC(CN)NC)cc1 (centres unmarked) [TRG 2406-16]
IC50 (MCR-1; [5]): 2.12 µM | IC50 (MCR-4; [5]): 11.6 µM

SMILES: COc1ccc(CCNCC2c3ccccc3CN(CCCCC(N)CN)C2c2cccc(Oc3ccccc3)c2)cc1 (centres unmarked) [TRG 2414-105]
IC50 (MCR-1; [3]): 3.71 µM | IC50 (MCR-4; [4]): 2.68 µM

SMILES: COc1ccccc1CCNCC1c2ccccc2CN(CCCCC(CN)NCCc2ccccc2)C1c1cc(C(F)(F)F)cc(C(F)(F)F)c1 (centres unmarked) [TRG 2414-50]
IC50 (MCR-1; [3]): 8.09 µM | IC50 (MCR-4; [4]): 4.94 µM

SMILES: CCNC(CN)CCCCN1Cc2ccccc2C(CN)C1c1ccc(CC)cc1 (centres unmarked) [TRG 2415-19]
IC50 (MCR-1; [6]): 1.46 µM | IC50 (MCR-4; [7]): 2.04 µM

SMILES: NC[C@H](CCCN1Cc2ccccc2C(CNC2CCCCC2)C1c1ccc(Cl)cc1Cl)NCCc1ccccc1 (some centres unmarked) [TRG 2408-72]
IC50 (MCR-1; [8]): 1.94 µM | IC50 (MCR-4; [8]): 5.87 µM

SMILES: COc1cccc(CCNCC2c3ccccc3CN(CCCCC(CN)NCc3ccccc3)C2c2cccc(C(F)(F)F)c2)c1 (centres unmarked) [TRG 2421-47]
IC50 (MCR-1; [6]): 2.71 µM | IC50 (MCR-4; [7]): 1.37 µM

SMILES: CCCCNc1ccc(C2C(CNCCc3ccccc3)c3ccccc3CN2CCCC(CN)NCCC2CCCCC2)cc1 (centres unmarked) [TRG 2411-200]
IC50 (MCR-1; [6]): 0.13 µM | IC50 (MCR-4; [7]): 1.34 µM

SMILES: COc1ccc(CNC(CN)CCCCN2Cc3ccccc3C(CNCCc3ccc(OC)c(OC)c3)C2c2cc(C(F)(F)F)cc(C(F)(F)F)c2)cc1 (centres unmarked) [TRG 2421-19]
IC50 (MCR-1; [6]): 1.63 µM | IC50 (MCR-4; [7]): 0.52 µM

SMILES: NCC(CCCCN1Cc2ccccc2C(CNCc2ccccc2C(F)(F)F)C1c1ccc(Cl)cc1Cl)NCc1ccccc1 (mixture of isomers) [TRG 2414-3]
IC50 (MCR-4; [4]): 65.5 µM

SMILES: NCC(CCCCN1Cc2ccccc2C(CNCc2ccccc2C(F)(F)F)C1c1ccc(Cl)cc1Cl)NCCc1ccccc1 (centres unmarked) [TRG 2414-2]
IC50 (MCR-4; [4]): 29.3 µM

Further lines, results first:

IC50 (MCR-1; [1]): 0.57 µM | IC50 (MCR-4; [2]): 1.06 µM
SMILES: CCCCNc1ccc(C2C(CNCCc3ccccc3)c3ccccc3CN2CCCCC(CN)NCCc2ccc3ccccc3c2)cc1 (centres unmarked) [TRG 2411-83]

IC50 (MCR-1; [1]): 1.26 µM | IC50 (MCR-4; [2]): 1.19 µM
SMILES: CCCCNC(CN)CCCN1Cc2ccccc2C(CN)C1c1ccc(-c2ccccc2)cc1 (centres unmarked) [TRG 2411-147]

IC50 (MCR-1; [3]): 4.51 µM | IC50 (MCR-4; [4]): 2.5 µM
SMILES: COc1cccc(CNCC2c3ccccc3CN(CCCCC(N)CN)C2c2cccc(Oc3ccccc3)c2)c1 (mixture of isomers) [TRG 2414-97]

IC50 (MCR-1; [3]): 4.3 µM | IC50 (MCR-4; [4]): 5.42 µM
SMILES: CCCOc1ccc(C2C(CNCCc3cccc(Cl)c3)c3ccccc3CN2CCCCC(CN)NCCc2ccccc2)cc1 (mixture of isomers) [TRG 2414-174]

IC50 (MCR-1; [5]): 3.65 µM | IC50 (MCR-4; [5]): 4.12 µM
SMILES: CNC(CN)CCCCN1Cc2ccccc2C(CNc2ccccc2OC)C1c1ccc(Cl)cc1Cl (centres unmarked) [TRG 2407-4]

IC50 (MCR-1; [1]): 0.2 µM | IC50 (MCR-4; [2]): 1.45 µM
SMILES: CCCCNc1ccc(C2C(CN)c3ccccc3CN2CCCCC(CN)NCCN)cc1 (centres unmarked) [TRG 2411-112]

MC-1 IC50 (MCR-1; [3]): no fit | IC50 (MCR-4; [4]): 17.7 µM
SMILES: COc1ccc(CCNCC2c3ccccc3CN(CCCCC(CN)NCC(C)c3ccc(CC(C)C)cc3)C2c2cc(C(F)(F)F)cc(C(F)(F)F)c2)cc1 (centres unmarked) [TRG 2414-68]

IC50 (MCR-1; [8]): 4.51 µM | IC50 (MCR-4; [8]): 1.54 µM
SMILES: CCNc1ccc(C2C(CNC3CCCCC3)c3ccccc3CN2CCC(CN)NCCc2ccccc2)cc1 (centres unmarked) [TRG 2408-92]

IC50 (MCR-1; TRG 2414 library, inhibition of binding of 125I-HP 467, HEK 293 cells expressing MCR-1): 4.41 µM | IC50 (MCR-4; TRG 2414 library, inhibition of binding of 125I-HP 467, HEK 293 cells expressing MCR-4): 5.28 µM
SMILES: NCC(CCCCN1Cc2ccccc2C(CNC2CCCCCC2)C1c1ccccc1Br)NCCc1ccccc1 (centres unmarked) [Cmpd 234]

IC50 (MCR-4; [4]): 5.54 µM
SMILES: CCOc1ccccc1CNCC1c2ccccc2CN(CCCCC(CN)NCCc2ccccc2)C1c1ccc(Cl)cc1Cl (centres unmarked) [TRG 2414-6]

From patent US6608082B1, “Treatment of erectile dysfunction using isoquinoline compound melanocortin receptor ligands” (Lion Bioscience AG, priority 1998, dated 2003)
